Data on two molecules can be found in patent US20010018209A1, “Cell compositions” (Takara Shuzo Co., Ltd., priority 1996, published 2001).

Data set [1] deals with HL-60 cells. Put plainly: Cell growth inhibitory activity by MTT, absorbance at 590 nm (HL-60 compared with HUVEC). The format is cell-based. To be noted: final 1-100 μM, 48 hours.
For data set [2], the system named is fibroblasts, NIH/3T3 cells (ATCC CRL-1658). Put plainly: Cell growth inhibitory activity, MTT, observed under a microscope. It is filed as cell-based. To be noted: 48 hours. How it is done:
(§1) (3) The fibroblasts, NIH/3T3 cells (ATCC CRL-1658), were dispersed with trypsin according to a conventional method and suspended in Dulbecco modified Eagle's culture medium containing 10% bovine serum at a concentration of 5× 10^4 cells/ml. Then, each 90 μl portion thereof was distributed into each well of a 96-well microtiter plate. To each well was added an aqueous solution (10 μl) of 15.6, 31.3, 62.5, 125, 250, 500 or 1,000 μM cyclopentenone, or water (10 μl) as a control and the cells on that plate were incubated at 37° C. for 48 hours in the presence of 5% CO2. Further, 5 mg/ml MTT phosphate buffered saline (10 μl) was added and the incubation was continued for additional 4 hours. Cell growth was observed under a microscope and the apoptosis inducing activity was estimated as cell growth inhibitory activity.

In data set [3] the test system is HL-60 cells. The description is as above. The format is cell-based. The following applies: 48 hours. The procedure:
as §1
The same procedure was repeated with respect to HL-60 cells except that the cells were cultured in RPMI1640 culture medium containing 10% fetal bovine serum.

A further data set deals with cancer cells. Put plainly: Apoptosis after addition to a culture broth of cancer cells (general statement). It is filed as cell-based. To be noted: within one to several days after addition.
The next data set concerns normal cells. Put plainly: Toxicity / apoptosis against normal cells (general statement). It is filed as cell-based.
For a further data set, the system named is mouse. Put plainly: Toxicity on administration to mouse (general statement). To be noted: in vivo.
Data set [4] relates to Myeloma cells (P3X63Ag8U.1, ATCC CRL-1597). Put plainly: Apoptosis induction / living cell number in cultured myeloma cells (trypan blue, microscope). The following applies: 1 mg/ml, 60 hours. It is filed as cell-based. How it is done:
Myeloma cells (P3X63Ag8U.1, ATCC CRL-1597) were cultured at 37° C. in RPMI1640 culture medium (manufactured by Gibco) containing 10% fetal bovine serum (manufactured by JRH Bioscience) treated at 56° C. for 30 minutes and they were suspended in RPMI1640 culture medium containing 10% fetal bovine serum at a concentration of 2.5×10^5 cells/4.5 ml. On the other hand, a dextran sulfate (molecular weight: 0.5 million, manufactured by Oncor) was dissolved in 50 mM HEPES buffer (pH 7.0) containing 120 mM sodium chloride at a concentration of 10 mg/ml and sterilized by filtration. This solution (0.5 ml) was added to the above suspension (4.5 ml) and incubated at 37° C. for 60 hours in the presence of 5% CO2.
The incubated cells were observed under a microscope to examine the degree of growth and cell morphology. […] After initiation of incubation, the living cell number was counted with time by trypan blue staining.
Next, A dextran sulfate (molecular weight: 0.5 million, manufactured by Oncor) was dissolved in 50 mM HEPES buffer (pH 7.0) containing 120 mM sodium chloride in concentration of 10 mg/ml, and treated by heating at 120° C. for 20 minutes. According to the same manner as described above, apoptosis inducing activity was determined by using the dextran sulfate.

Turning to `O=C1C=CC(O)C1O` (centres unmarked) [cyclopentenone, 4,5-dihydroxy-2-cyclopenten-1-one], in the data set with HL-60 cells [1], the “cell growth inhibitory activity, HL-60 compared with HUVEC” value was “stronger cell growth inhibitory activity to the cancer cells, HL-60 cells than that to the normal cells, HUVEC cells”. In addition, the cell growth entry in data set [2] (final concentration of 12.5 μM) is “the same cell growth as that of the water-added control group”; in data set [2] (final concentration of 25 μM), “no cell growth was observed”; in the data set on HL-60 cells [3] (final concentration of 6.25 μM), “no cell growth was observed”. Besides, in the data set on HL-60 cells [3], the “selectivity, tumor cell line HL-60 compared with non-tumor cell line NIH/3T3” value is “selective cell growth inhibitory activity and cytocidal activity”. Besides, the cytocidal effect result in the data set with HL-60 cells [3] (final concentration of 6.25 μM) was “almost all the cells were killed”. In addition, the “apoptosis of cancer cells” value with cancer cells is “apoptosis of the cancer cells is caused”. The “toxicity against normal cells” value in the data set with normal cells is reported as “does not show any toxicity against normal cells”. Also, the toxicity in mouse entry with mouse is “does not show any toxicity against mouse”.
As to dextran sulfate, in data set [4], the apoptosis inducing activity result is recorded as “strong apoptosis inducing activity” and the “cell morphology under a microscope (characteristics of apoptosis)” value was “exhibited characteristics of apoptosis such as cell shrinkage, cell nuclear fragmentation”.
